molecular target: T1, APJ Receptor (Homo sapiens, UniProt P35414); assay: APJ cAMP assay (DiscoverX enzyme fragment complementation; inhibition of forskolin-stimulated cAMP); type: cell-based; conditions: CHO-K1 cell line stably expressing the APJ Receptor; EC80 forskolin; 30 minutes at 37° C.; read-out: Potency Range (APJ cAMP EC50)
T1 sequence (P35414 1-380): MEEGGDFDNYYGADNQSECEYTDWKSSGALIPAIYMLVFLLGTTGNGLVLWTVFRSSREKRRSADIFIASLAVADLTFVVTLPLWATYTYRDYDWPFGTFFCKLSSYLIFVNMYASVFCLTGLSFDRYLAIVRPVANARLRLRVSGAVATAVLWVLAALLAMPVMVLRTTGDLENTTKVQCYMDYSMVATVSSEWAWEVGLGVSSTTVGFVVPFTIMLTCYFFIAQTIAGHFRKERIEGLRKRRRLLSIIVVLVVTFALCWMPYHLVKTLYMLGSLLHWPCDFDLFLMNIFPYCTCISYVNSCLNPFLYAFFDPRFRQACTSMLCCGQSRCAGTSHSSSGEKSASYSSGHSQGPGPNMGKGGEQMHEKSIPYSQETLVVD
Text: Activation of APJ receptor is known to inhibit forskolin-stimulated cyclic AMP (cAMP) production in cells in a pertussis toxin-sensitive manner which indicates primary coupling to the GαI subunit of the G protein heterotrimeric complex. In addition to signaling through G protein and inhibition of cAMP, APJ receptor activation also results in β-arrestin recruitment, receptor internalization and activation of extracellular-regulated kinases (ERKs).
In order to optimize functional activity directed toward Gi coupling we utilized a CHO-K 1 cell line developed by DiscoverX stably expressing the APJ Receptor. Cells expressing APJR receptor were plated in a 384-well microtiter plates and incubated overnight at 37° C. with 5% CO2 to allow the cells to attach and grow. Media was then aspirated from the cells and replaced with 15 uL 2:1 Hanks Balanced Salt Solution (HBSS)/10 mM Hepes:cAMP XS+Ab reagent. Five microliters (5 uL) of previously generated compound sample stocks at 4× final concentration in assay buffer containing 4× EC80 forskolin were then added to the cells and allowed to incubate at 37° C. for 30 minutes.
After incubation the assay signal was generated using a technology termed enzyme fragment complementation (EFC). In EFC the enzyme B-galactosidase is split into two complementary portions (EA and ED). The fragment ED is fused to cAMP and in the assay format competes with endogenous cAMP for binding to a cAMP specific antibody. Activated B-Gal is formed when exogenous EA fragment binds to free ED-cAMP (not bound to cAMP specific antibody). Activated enzyme levels are detected through conversion of B-gal chemiluminescent substrate which generates a detectable luminescence signal and read on standard microtiter plate.
The methodology for detection of cAMP using EFC requires incubation with 20 uL of cAMP XS+ED/CL lysis cocktail for one hour followed by incubation with 20 uL cAMP XS+EA reagent for three hours at room temperature. Microplates were read following signal generation with a PerkinElmer Envision instrument utilizing chemiluminescent signal detection.
Compound activity was analyzed using CBIS data analysis suite (ChemInnovation, CA). Percentage activity was calculated using the following formula: % Activity=100%×(1−(mean RLU of test sample−mean RLU of Max control)/(mean RLU of vehicle control−mean RLU of Max control))

Q: Which EC50 does the source give for `CCOc1cccc(-c2nc3nc(Cl)c(NS(=O)(=O)c4ccc(C(F)F)cc4)nc3n2-c2c(OC)cccc2OC)n1` [Example 106, N-(5-Chloro-1-(2,6-dimethoxyphenyl)-2-(6-ethoxypyridin-2-yl)-1H-imidazo[4,5-b]pyrazin-6-yl)-4-(difluoromethyl)benzenesulfonamide] here?
A: 1 to 100 nM

Q: `CCOc1cccc(-c2nc3ncc(NS(C)(=O)=O)cc3n2-c2c(OC)cccc2OC)n1` [Example 20, N-(1-(2,6-dimethoxyphenyl)-2-(6-ethoxypyridin-2-yl)-1H-imidazo[4,5-b]pyridin-6-yl)methanesulfonamide] was tested. Which EC50 did it give?
A: 1 to 100 nM

Q: How did the EC50 turn out when `COc1cccc(OC)c1-n1c(-c2ccc(C)o2)nc2ncc(NS(C)(=O)=O)nc21` [Example 131, N-(1-(2,6-dimethoxyphenyl)-2-(5-methylfuran-2-yl)-1H-imidazo[4,5-b]pyrazin-6-yl)methanesulfonamide] was run?
A: 1 to 100 nM

Q: For `CCOc1cccc(-c2nc3ncc(NCc4ccccc4)nc3n2-c2c(OC)cccc2OC)n1` [Example 13, N-benzyl-1-(2,6-dimethoxyphenyl)-2-(6-ethoxypyridin-2-yl)-1H-imidazo[4,5-b]pyrazin-6-amine], which EC50 is on record?
A: 1 to 100 nM

Q: With `COc1cccc(OC)c1-n1c(-c2cccc(OC(F)(F)F)n2)nc2ncc(NS(C)(=O)=O)nc21` [Example 56, N-(1-(2,6-dimethoxyphenyl)-2-(6-(trifluoromethoxy)pyridin-2-yl)-1H-imidazo[4,5-b]pyrazin-6-yl)methanesulfonamide] as the compound, how does the EC50 read?
A: 100 to 10000 nM

Q: With `CCOc1cccc(-c2nc3nc(O)c(NS(C)(=O)=O)nc3n2-c2c(OC)cccc2OC)n1` [Example 135, N-(1-(2,6-Dimethoxyphenyl)-2-(6-ethoxypyridin-2-yl)-5-hydroxy-1H-imidazo[4,5-b]pyrazin-6-yl)methanesulfonamide] as the compound, how does the EC50 read?
A: 1 to 100 nM

Q: With `CCOc1cccc(-c2nc3nc(Cl)c(NS(=O)(=O)Cc4ccc(F)cn4)nc3n2-c2c(OC)cccc2OC)n1` [Example 96, N-(5-Chloro-1-(2,6-dimethoxyphenyl)-2-(6-ethoxypyridin-2-yl)-1H-imidazo[4,5-b]pyrazin-6-yl)-1-(5-fluoropyridin-2-yl)methanesulfonamide] as the compound, how does the EC50 read?
A: < 1 nM

Q: With `COc1cccc(OC)c1-n1c(-c2ccc(C)o2)nc2nnc(NS(C)(=O)=O)cc21` [Example 130, N-(7-(2,6-Dimethoxyphenyl)-8-(5-methylfuran-2-yl)-7H-imidazo[4,5-c]pyridazinyl)methanesulfonamide] as the compound, how does the EC50 read?
A: 100 to 10000 nM

Q: Which EC50 does the source give for `CCOc1cccc(-c2nc3ncc(NS(=O)(=O)c4ccncc4)nc3n2-c2c(OC)cccc2OC)n1` [Example 25, N-(1-(2,6-dimethoxyphenyl)-2-(6-ethoxypyridin-2-yl)-1H-imidazo[4,5-b]pyrazin-6-yl)pyridine-4-sulfonamide] here?
A: 1 to 100 nM

Q: With `CCOc1cccc(-c2nc3nnc(NS(=O)(=O)N4CCOCC4)cc3n2-c2c(OC)cccc2OC)n1` [Example 121, N-(7-(2,6-Dimethoxyphenyl)-8-(6-ethoxypyridin-2-yl)-7H-imidazo[4,5-c]pyridazinyl)morpholine-4-sulfonamide] as the compound, how does the EC50 read?
A: 1 to 100 nM

Q: How did the EC50 turn out when `CCOc1cccc(-c2nc3ncc(NS(=O)(=O)Cc4cnccn4)nc3n2-c2c(OC)cccc2OC)n1` [Example 69, N-(1-(2,6-dimethoxyphenyl)-2-(6-ethoxypyridin-2-yl)-1H-imidazo[4,5-b]pyrazin-6-yl)-1-(pyrazin-2-yl)methanesulfonamide] was run?
A: 1 to 100 nM

Q: Which EC50 does the source give for `CCOc1cccc(-c2nc3ncc(NS(C)(=O)=O)nc3n2C(C)C)n1` [Example 59, N-(2-(6-ethoxypyridin-2-yl)-1-isopropyl-II-1-imidazo[4,5-b]pyrazin-6-yl)methanesulfonamide] here?
A: 100 to 10000 nM

Q: How did the EC50 turn out when `CCOc1cccc(-c2nc3ncc(NS(=O)(=O)Cc4cccnc4)nc3n2-c2c(OC)cccc2OC)n1` [Example 26, N-(1-(2,6-dimethoxyphenyl)-2-(6-ethoxypyridin-2-yl)-1H-imidazo[4,5-b]pyrazin-6-yl)-1-(pyridin-3-yl)methanesulfonamide] was run?
A: 1 to 100 nM

Q: Which EC50 does the source give for `CCOc1cccc(-c2nc3nc(NS(=O)(=O)CC4(O)CNC4)cnc3n2-c2c(OC)cccc2OC)n1` [Example 93, N-(1-(2,6-Dimethoxyphenyl)-2-(6-ethoxypyridin-2-yl)-1H-imidazo[4,5-b]pyrazin-5-yl)-1-(3-hydroxyazetidin-3-yl)methanesulfonamide] here?
A: < 1 nM

Q: `CCOc1cccc(-c2nc3ncc(NS(=O)(=O)N4CCCC4)nc3n2-c2c(OC)cccc2OC)n1` [Example 73, N-(1-(2,6-dimethoxyphenyl)-2-(6-ethoxypyridin-2-yl)-1H-imidazo[4,5-b]pyrazin-6-yl)pyrrolidine-1-sulfonamide] was tested. Which EC50 did it give?
A: 1 to 100 nM

Q: For `CCOc1cccc(-c2nc3nc(Cl)c(NS(C)(=O)=O)nc3n2-c2c(OC)cncc2OC)n1` [Example 117, N-(5-Chloro-1-(3,5-dimethoxypyridin-4-yl)-2-(6-ethoxypyridin-2-yl)-1H-imidazo[4,5-b]pyrazin-6-yl)methanesulfonamide], which EC50 is on record?
A: 1 to 100 nM

Q: How did the EC50 turn out when `CCOc1cccc(-c2nc3ncc(O)nc3n2-c2c(OC)cccc2C(F)(F)F)n1` [Example 47, 2-(6-ethoxypyridin-2-yl)-1-(2-methoxy-6-(trifluoromethyl)phenyl)-1H-imidazo[4,5-b]pyrazin-6-ol] was run?
A: 100 to 10000 nM

Q: How did the EC50 turn out when `CCOc1cccc(-c2nc3nc(NS(C)(=O)=O)cnc3n2-c2c(OC)cccc2OC)n1` [Example 43, N-(1-(2,6-dimethoxyphenyl)-2-(6-ethoxypyridin-2-yl)-1H-imidazo[4,5-b]pyrazin-5-yl)methanesulfonamide] was run?
A: 1 to 100 nM

Q: How did the EC50 turn out when `CCOc1cccc(-c2nc3nc(COC(F)F)c(NS(C)(=O)=O)nc3n2-c2c(OC)cccc2OC)n1` [Example 141, N-(5-((Difluoromethoxy)methyl)-1-(2,6-dimethoxyphenyl)-2-(6-ethoxypyridin-2-yl)-1H-imidazo[4,5-b]pyrazin-6-yl)methanesulfonamide] was run?
A: 1 to 100 nM

Q: `CCOc1cccc(-c2nc3nnc(NS(=O)(=O)CC4CC(C)(O)C4)cc3n2-c2c(OC)cccc2OC)n1` (stereo not drawn) [Example 128, N-(5-(2,6-Dimethoxyphenyl)-6-(6-ethoxypyridin-2-yl)-5H-imidazo[4,5-c]pyridazin-3-yl)-1-(3-hydroxy-3-methylcyclobutyl)methanesulfonamide] was tested. Which EC50 did it give?
A: < 1 nM

Q: Which EC50 does the source give for `CCOc1cccc(-c2nc3ncc(NS(=O)(=O)c4ncccn4)nc3n2-c2c(OC)cccc2OC)n1` [Example 41, N-(1-(2,6-dimethoxyphenyl)-2-(6-ethoxypyridin-2-yl)-1H-imidazo[4,5-b]pyrazin-6-yl)pyrimidine-2-sulfonamide] here?
A: 1 to 100 nM

Q: For `CCOc1cccc(-c2nc3nc(F)c(NS(C)(=O)=O)nc3n2-c2c(OC)cccc2OC)n1` [Example 146, N-(1-(2,6-Dimethoxyphenyl)-2-(6-ethoxypyridin-2-yl)-5-fluoro-1H-imidazo[4,5-b]pyrazin-6-yl)methanesulfonamide], which EC50 is on record?
A: 1 to 100 nM

Q: With `CCOc1cccc(-c2nc3nc(Cl)c(NS(=O)(=O)c4ccc(C)cn4)nc3n2-c2c(OC)cccc2OC)n1` [Example 101, N-(5-Chloro-1-(2,6-dimethoxyphenyl)-2-(6-ethoxypyridin-2-yl)-1H-imidazo[4,5-b]pyrazin-6-yl)-5-methylpyridine-2-sulfonamide] as the compound, how does the EC50 read?
A: < 1 nM

Q: `CCOc1cccc(-c2nc3ncc(N(Cc4ccccc4)Cc4ccccc4)nc3n2-c2c(OC)cccc2OC)n1` [Example 11, N,N-dibenzyl-1-(2,6-dimethoxyphenyl)-2-(6-ethoxypyridin-2-yl)-1H-imidazo[4,5-b]pyrazin-6-amine] was tested. Which EC50 did it give?
A: 1 to 100 nM
